For 26 compounds, T/C results are on record in PubChem BioAssay AID330 (DTP/NCI, 2004).

The assay concerns P388 leukemia ip, CD2F1 mice, survival T/C. As to the kind of experiment: NCI In Vivo Anticancer Drug Screen. Data for tumor model P388 Leukemia (intraperitoneal) in CD2F1 (CDF1) mice. Conditions: endpoint: median survival time, higher = longer survival. A digest of the protocol: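 Mice carrying the transplanted tumor received test compound or vehicle. Survival was recorded in each group, and the value is the treated-group measurement divided by that of the vehicle-treated control group.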

Where [1] appears, read: dose: 50.0 mg/kg/injection, schedule: Q01DX005 (ip), vehicle: Klucel (hydroxypropylcellulose) (HPC).
Setting [2] is: dose: 100.0 mg/kg/injection, schedule: Q01DX005 (ip), vehicle: Klucel (hydroxypropylcellulose) (HPC).
[3] abbreviates: dose: 60.0 mg/kg/injection, schedule: Q01DX005 (ip), vehicle: saline with Tween-80.
[4] abbreviates: dose: 120.0 mg/kg/injection, schedule: Q01DX005 (ip), vehicle: saline with Tween-80.
[5] abbreviates: dose: 50.0 mg/kg/injection, schedule: Q01DX005 (ip), vehicle: saline.
The mark [6] stands for this setting: dose: 100.0 mg/kg/injection, schedule: Q01DX005 (ip), vehicle: saline.
[7] abbreviates: dose: 200.0 mg/kg/injection, schedule: Q01DX005 (ip), vehicle: saline.
Setting [8] is: dose: 12.5 mg/kg/injection, schedule: Q01DX009 (ip), vehicle: saline.
[9] abbreviates: dose: 25.0 mg/kg/injection, schedule: Q01DX009 (ip), vehicle: saline.
Where [10] appears, read: dose: 50.0 mg/kg/injection, schedule: Q01DX009 (ip), vehicle: saline.
Where [11] appears, read: dose: 200.0 mg/kg/injection, schedule: Q01DX005 (ip), vehicle: Klucel (hydroxypropylcellulose) (HPC).
Setting [12] is: dose: 100.0 mg/kg/injection, schedule: Q01DX009 (ip), vehicle: saline.
Where [13] appears, read: dose: 200.0 mg/kg/injection, schedule: Q01DX009 (ip), vehicle: saline.
Where [14] appears, read: dose: 400.0 mg/kg/injection, schedule: Q01DX009 (ip), vehicle: saline.

Where “and” joins values, the source holds several entries; their conditions need not be identical. Equal entries are not always repeated. Toxic doses and inconclusive results are not listed. Numbered stars: 1 amine (or outer) side, 2 acyl side, 3 side chain; on linkers, the order of the positions; unused ones are H or OH. Peptide text beside a SMILES is read from it. γGlu = O=C(O)[CH](CCC(=O)[*:2])N[*:1]

Turning to `Cc1ccccc1N=C(N)Nc1ccccc1C`, the T/C runs as follows: (dose: 2.5 mg/kg/injection, schedule: Q01DX009 (ip), vehicle: saline with Tween-80) 95 % of control; (dose: 5.0 mg/kg/injection, schedule: Q01DX009 (ip), vehicle: saline with Tween-80) 100 % of control; (dose: 10.0 mg/kg/injection, schedule: Q01DX009 (ip), vehicle: saline with Tween-80) 100 % of control.
As for `O=C(Nc1cccc2c1C(=O)c1ccc(Nc3cc(NC(=O)c4ccccc4)c4c(c3)C(=O)c3ccccc3C4=O)cc1C2=O)c1ccccc1`, the T/C reads like this: (dose: 100.0 mg/kg/injection, schedule: Q04DX003 (ip), vehicle: saline with Tween-80) 100 % of control; (dose: 200.0 mg/kg/injection, schedule: Q04DX003 (ip), vehicle: saline with Tween-80) 100 % of control; (dose: 400.0 mg/kg/injection, schedule: Q04DX003 (ip), vehicle: saline with Tween-80) 109 % of control.
Take `O=C1/C(=C/c2ccc3c(c2)OCO3)SC(=S)N1c1ccc(Cl)c(Cl)c1`: the T/C is, setting by setting: under setting [1], 103 % of control; under setting [2], 100 % of control.
In the case of `COC(=O)c1nnn(-c2cc(Cl)ccc2Cl)c1N`, under setting [3], the T/C is 91 % of control.
Consider `CCOC(=O)c1nc(C)n2cc([N+](=O)[O-])ccc12`, for which the T/C (dose: 2.0 mg/kg/injection, schedule: Q01DX009 (ip), vehicle: saline) was 86 % of control; the T/C (dose: 4.0 mg/kg/injection, schedule: Q01DX009 (ip), vehicle: saline) was 91 % of control; the T/C (dose: 8.0 mg/kg/injection, schedule: Q01DX009 (ip), vehicle: saline) is 88 % of control.
As to `ClCCN(CCCl)c1ccc(/C=N/Nc2c3ccccc3nc3ccccc23)cc1`, the T/C is, setting by setting: (dose: 6.25 mg/kg/injection, schedule: Q01DX009 (ip), vehicle: DMSO) 88 % of control; (dose: 12.5 mg/kg/injection, schedule: Q01DX009 (ip), vehicle: DMSO) 90 % of control.
With `NC(N)=NC(=O)COc1ccc(Cl)cc1Cl`, the T/C by setting is: under setting [3], 97 % of control; under setting [4], 103 % of control; (dose: 240.0 mg/kg/injection, schedule: Q01DX005 (ip), vehicle: saline with Tween-80) 114 % of control.
As for `NC(CCC(=O)NC(CCC(=O)O)C(=O)NC(CCC(=O)O)C(=O)O)C(=O)O` (stereo not drawn) (γGlu-Glu-Glu-OH; configuration not given here), the T/C was 98 % of control under setting [5], 95 % of control under setting [6] and 102 % of control under setting [7].
With `O=[N+]([O-])C(c1ccccc1)C(c1ccccc1)[N+](=O)[O-]` (stereo unspecified), the T/C reads like this: (dose: 12.5 mg/kg/injection, schedule: Q01DX005 (ip), vehicle: saline with Tween-80) 98 % of control; (dose: 25.0 mg/kg/injection, schedule: Q01DX005 (ip), vehicle: saline with Tween-80) 101 % of control; (dose: 50.0 mg/kg/injection, schedule: Q01DX005 (ip), vehicle: saline with Tween-80) 109 % of control and 112 % of control and 119 % of control; (dose: 100.0 mg/kg/injection, schedule: Q01DX005 (ip), vehicle: saline with Tween-80) 109 % of control and 110 % of control.
`CCc1cccc(CC)c1NC(=O)OCCN(CC)CC`: the T/C was 100 % of control under setting [3] and 94 % of control under setting [4].
With `CCN(CC)CCCOC(=O)c1ccc(N)cc1`, the T/C reads like this: under setting [8], 100 % of control; (dose: 12.5 mg/kg/injection, schedule: Q04DX003 (ip), vehicle: saline) 91 % of control; under setting [9], 109 % of control; (dose: 25.0 mg/kg/injection, schedule: Q04DX003 (ip), vehicle: saline) 91 % of control; under setting [10], 104 % of control; (dose: 50.0 mg/kg/injection, schedule: Q04DX003 (ip), vehicle: saline) 87 % of control.
In the case of `COC1C(=O)c2ccccc2N1C(C)=O` (stereo unspecified), the T/C was 108 % of control (dose: 60.0 mg/kg/injection, schedule: Q01DX005 (ip), vehicle: Klucel (hydroxypropylcellulose) (HPC)); 101 % of control (dose: 120.0 mg/kg/injection, schedule: Q01DX005 (ip), vehicle: Klucel (hydroxypropylcellulose) (HPC)); 99 % of control (dose: 240.0 mg/kg/injection, schedule: Q01DX005 (ip), vehicle: Klucel (hydroxypropylcellulose) (HPC)).
For the compound `Cc1ccc(/C=C2\SC(=S)N(C3CC3)C2=O)cc1`, the T/C runs as follows: under setting [1], 97 % of control; under setting [2], 95 % of control; under setting [11], 93 % of control.
In the case of `CC(O)c1cc(=O)[nH][nH]1` (stereo unspecified), the T/C was 105 % of control under setting [5], 99 % of control under setting [6] and 110 % of control under setting [7].
On to `CC(=O)Nc1cc2cc(NS(=O)(=O)c3ccc(Cl)c(Cl)c3)ccc2oc1=O`, for which the T/C by setting is: under setting [1], 89 % of control; under setting [2], 93 % of control; under setting [11], 95 % of control.
`CC(C)(C)c1ccc(S(=O)(=O)C[CH2][Sn]([CH3])([CH3])[CH3])cc1`: the T/C reads like this: (dose: 6.25 mg/kg/injection, schedule: Q01DX009 (ip), vehicle: saline) 104 % of control; under setting [8], 87 % of control.
For `CC[n+]1c2ccc(C)cc2nc2c3ccccc3c(N)cc21`, the T/C reads like this: (dose: 5.0 mg/kg/injection, schedule: Q01DX009 (ip), vehicle: saline) 110 % of control; (dose: 10.0 mg/kg/injection, schedule: Q01DX009 (ip), vehicle: saline) 106 % of control; (dose: 20.0 mg/kg/injection, schedule: Q01DX009 (ip), vehicle: saline) 99 % of control.
As for `CCCCOC(=O)c1ccc2nc(NC(=O)OC)[nH]c2c1`, the T/C (dose: 100.0 mg/kg/injection, schedule: Q04DX002 (ip), vehicle: saline with Tween-80) is 100 % of control; the T/C (dose: 200.0 mg/kg/injection, schedule: Q04DX002 (ip), vehicle: saline with Tween-80) is 90 % of control; the T/C (dose: 400.0 mg/kg/injection, schedule: Q04DX002 (ip), vehicle: saline with Tween-80) was 91 % of control.
On to `CC(=O)C(Cl)c1ccccc1Cl` (stereo unspecified), for which the T/C by setting is: (dose: 25.0 mg/kg/injection, schedule: Q01DX009 (ip), vehicle: Klucel (hydroxypropylcellulose) (HPC)) 111 % of control; (dose: 50.0 mg/kg/injection, schedule: Q01DX009 (ip), vehicle: Klucel (hydroxypropylcellulose) (HPC)) 107 % of control and 113 % of control; (dose: 100.0 mg/kg/injection, schedule: Q01DX009 (ip), vehicle: Klucel (hydroxypropylcellulose) (HPC)) 109 % of control.
On to `O=C1CC(c2ccccc2)C(=O)N1CN1CC=CCC1` (stereo unspecified), for which the T/C (dose: 100.0 mg/kg/injection, schedule: Q01DX001 (ip), vehicle: Klucel (hydroxypropylcellulose) (HPC)) is 124 % of control.
Regarding `NC(=O)c1cncn1C1OCC(O)C(O)C1O` (stereo unspecified), the T/C runs as follows: (dose: 60.0 mg/kg/injection, schedule: Q01DX005 (ip), vehicle: saline) 96 % of control; (dose: 120.0 mg/kg/injection, schedule: Q01DX005 (ip), vehicle: saline) 94 % of control; (dose: 240.0 mg/kg/injection, schedule: Q01DX005 (ip), vehicle: saline) 91 % of control.
`CC1=CC(=C2C=C(C)C(=O)C(C)=C2)C=C(C)C1=O`: the T/C under setting [12] is 97 % of control and 98 % of control; the T/C under setting [13] was 91 % of control and 95 % of control; the T/C under setting [14] was 93 % of control and 94 % of control.
As to `O=C(c1ccccc1)C1OC1c1ccccc1` (stereo unspecified), the T/C was 104 % of control (dose: 50.0 mg/kg/injection, schedule: Q01DX009 (ip), vehicle: saline with Tween-80); 105 % of control and 97 % of control (dose: 100.0 mg/kg/injection, schedule: Q01DX009 (ip), vehicle: saline with Tween-80); 103 % of control and 114 % of control (dose: 200.0 mg/kg/injection, schedule: Q01DX009 (ip), vehicle: saline with Tween-80); 109 % of control and 123 % of control (dose: 400.0 mg/kg/injection, schedule: Q01DX009 (ip), vehicle: saline with Tween-80); 87 % of control (dose: 600.0 mg/kg/injection, schedule: Q01DX009 (ip), vehicle: saline with Tween-80).
Take `O=C1CCCC2=C1[Se]C1(O2)C(=O)CCCC1=O`: the T/C is 102 % of control under setting [8]; 101 % of control under setting [9]; 104 % of control and 107 % of control under setting [10].
Consider `COC(=O)c1ccnc(C(=O)OC)c1`, for which the T/C reads like this: (dose: 50.0 mg/kg/injection, schedule: Q01DX001 (ip), vehicle: saline) 86 % of control; (dose: 100.0 mg/kg/injection, schedule: Q01DX001 (ip), vehicle: saline) 95 % of control; (dose: 200.0 mg/kg/injection, schedule: Q01DX001 (ip), vehicle: saline) 100 % of control.
As to `CN1CCC(OC(N)=O)CC1`, the T/C under setting [12] was 100 % of control, the T/C under setting [13] was 100 % of control and the T/C under setting [14] was 104 % of control.
